Tested on: primary DRG neuron
Experiment: Axon growth of primary DRG neurons (immunofluorescence, Neuro J)
Format: cell-based, C57BL/6J mice
Details: 24 hours; for fold induction at 10 µM: Mus musculus, multiple of total axon length of a single DRG neuron relative to blank control group; for Promotion of axon growth of the primary DRG neuron compared with the positive drug (in words): 10 μm
Procedure: Diabetic peripheral neuropathy involved a sensory neuron first, and a main pathological change was axonal atrophy and degeneration, or even disappearance. […] Therefore, the compounds in the examples were added with the primary DRG neuron to incubate for a certain period of time, then the axon growth of the DRG neuron was detected by immunofluorescence, and an axon length was quantified by Neuro J, so as to evaluate the promotion effect of the compound on the axon growth of the peripheral sensory neuron.
Primary antibodies of mice anti-β-tubulin III used for fluorescent staining were purchased from Sigma Company, cell culture reagents were all purchased from Gibco Company, and DRG neuronal cells were taken from C57BL/6J mice. Specific experimental steps were as follows: fresh DRG of the C57 mice was extracted to digest into a single-cell suspension and then inoculated into a culture plate for adherent culture overnight, with vinblastine as a positive drug, the to-be-detected compounds S1 to S87 ([…]) synthesized in the above examples were given to incubate for 24 hours, then an original culture medium was removed, 4% paraformaldehyde was added into each well to fix for 15 minutes after PBS washing, the mixture was permeabilized with 0.3% TritonX-100 for 5 minutes and sealed at room temperature with 4% BSA for 1 hour, a primary antibody (1:1000) was incubated at 4° C. overnight, a goat anti-mouse fluorescent secondary antibody (1:300) was incubated at room temperature in the dark for 1 hour, and a sealed slide was imaged by a fluorescence microscope (Leica). According to the image, a total axon length of a single DRG neuron was tracked by a Neuro J plug-in in Image J software, and a multiple of the total axon length relative to that of the blank control group was calculated.

| SMILES | fold induction at 10 µM | Promotion of axon growth of the primary DRG neuron compared with the positive drug (in words) |
| --- | --- | --- |
| CC[C@@]12C=C(C(=O)NCC(=O)N[C@@H](CC(C)C)C(=O)O)n3c4c(c5ccccc53)CCN(CCC1)[C@H]42 [Compound S79] | 10.6 |  |
| CC[C@@]12C=C(C(=O)N[C@@H](C)C(=O)O)n3c4c(c5ccccc53)CCN(CCC1)[C@H]42 [Compound S73] | 12.1 |  |
| CC[C@@]12C=C(C(=O)N[C@@H](Cc3ccccc3)C(=O)OCCOCCOCCOCCOC)n3c4c(c5ccccc53)CCN(CCC1)[C@H]42 [Compound S14] | 10.5 |  |
| CC[C@@]12C=C(C(=O)N[C@@H](CCC(N)=O)C(=O)OCCOCCOCCOCCO)n3c4c(c5ccccc53)CCN(CCC1)[C@H]42 [Compound S36] | 11.7 |  |
| CC[C@@]12C=C(C(=O)OCCC(=O)OCCOCCOCCOCCOCCOCCO)n3c4c(c5ccccc53)CCN(CCC1)[C@H]42 [Compound S60] | 12 |  |
| CC[C@@]12C=C(C(=O)N[C@@H](Cc3c[nH]cn3)C(=O)OCCOCCOCCOCCO)n3c4c(c5ccccc53)CCN(CCC1)[C@H]42 [Compound S45] | 10.5 |  |
| CC[C@@]12C=C(C(=O)OCCC(=O)OCCO)n3c4c(c5ccccc53)CCN(CCC1)[C@H]42 [Compound S53] | 9.9 |  |
| CC[C@]12CCCN3CCc4c(n(c5ccccc45)[C@@](O)(C(=O)OC)C1)[C@@H]32 [Vincamine, reference compound] | 9.5 |  |
| CC[C@@]12C=C(C(=O)NCC(=O)OCCO)n3c4c(c5ccccc53)CCN(CCC1)[C@H]42 [Compound S23] | 10.3 |  |
| CC[C@@]12C=C(C(=O)NCC(=O)OCCOCCOCCOCCOC)n3c4c(c5ccccc53)CCN(CCC1)[C@H]42 [Compound S3] | 13.2 | more outstanding effect |
| CC[C@@]12C=C(C(=O)N[C@H](C(=O)OCCOCCOCCOCCO)C(C)C)n3c4c(c5ccccc53)CCN(CCC1)[C@H]42 [Compound S30] | 12.6 |  |
| CC[C@@]12C=C(C(=O)N[C@@H](CC(=O)O)C(=O)O)n3c4c(c5ccccc53)CCN(CCC1)[C@H]42 [Compound S70] | 10.8 |  |
| CC[C@@]12C=C(C(=O)N[C@@H](CN)C(=O)OCCOCCOCCOCCO)n3c4c(c5ccccc53)CCN(CCC1)[C@H]42 [Compound S39] | 11.2 |  |
| CC[C@@]12C=C(C(=O)NCC(=O)OCCOCCO)n3c4c(c5ccccc53)CCN(CCC1)[C@H]42 [Compound S24] | 11.7 |  |
| CC[C@@]12C=C(C(=O)NCC(=O)N[C@@H](Cc3ccc(O)cc3)C(=O)O)n3c4c(c5ccccc53)CCN(CCC1)[C@H]42 [Compound S78] | 10.2 |  |
| CC[C@@]12C=C(C(=O)OCCCC(=O)OCCOCCOCCOCCO)n3c4c(c5ccccc53)CCN(CCC1)[C@H]42 [Compound S61] | 11.3 |  |
| CC[C@@]12C=C(C(=O)NCC(=O)N[C@@H](CO)C(=O)OCCOCCOCCOCCO)n3c4c(c5ccccc53)CCN(CCC1)[C@H]42 [Compound S48] | 11.4 |  |
| CC[C@@]12C=C(C(=O)OCCC(=O)OCCOCCO)n3c4c(c5ccccc53)CCN(CCC1)[C@H]42 [Compound S56] | 11.3 |  |
| CC[C@@]12C=C(C(=O)N[C@H](C(=O)O)C(C)O)n3c4c(c5ccccc53)CCN(CCC1)[C@H]42 (stereo partly shown) [Compound S69] | 12.3 |  |
| CC[C@@]12C=C(C(=O)N[C@@H](CC(N)=O)C(=O)O)n3c4c(c5ccccc53)CCN(CCC1)[C@H]42 [Compound S71] | 10.5 |  |
| CC[C@@]12C=C(C(=O)N[C@@H](C)C(=O)OC)n3c4c(c5ccccc53)CCN(CCC1)[C@H]42 [Compound S82] | 12.5 |  |
| CC[C@@]12C=C(C(=O)NCC(=O)OCCOCCOCCOCCOCCOC)n3c4c(c5ccccc53)CCN(CCC1)[C@H]42 [Compound S4] | 11.5 |  |
| CC[C@@]12C=C(C(=O)N[C@@H](Cc3cc4ccccc4[nH]3)C(=O)OCCOCCOCCOCCO)n3c4c(c5ccccc53)CCN(CCC1)[C@H]42 [Compound S37] | 10.8 |  |
| CC[C@@]12C=C(C(=O)N[C@@H](CS)C(=O)OCCOCCOCCOCCO)n3c4c(c5ccccc53)CCN(CCC1)[C@H]42 [Compound S46] | 10.7 |  |
| CC[C@@]12C=C(C(=O)NCC(=O)O)n3c4c(c5ccccc53)CCN(CCC1)[C@H]42 [Compound S66] | 12.8 | more outstanding effect |
| CC[C@@]12C=C(C(=O)N[C@@H](CC(N)=O)C(=O)OCCOCCOCCOCCO)n3c4c(c5ccccc53)CCN(CCC1)[C@H]42 [Compound S41] | 11 |  |

| SMILES | fold induction at 10 µM | Promotion of axon growth of the primary DRG neuron compared with the positive drug (in words) |
| --- | --- | --- |
| CC[C@@]12C=C(C(=O)N(C)CC(=O)OCCOCCOCCOCCO)n3c4c(c5ccccc53)CCN(CCC1)[C@H]42 [Compound S63] | 10.9 |  |
| CC[C@@]12C=C(C(=O)NCC(=O)N[C@@H](CC(N)=O)C(=O)O)n3c4c(c5ccccc53)CCN(CCC1)[C@H]42 [Compound S77] | 10.8 |  |
| CC[C@@]12C=C(C(=O)OCCC(=O)OCCOCCOCCOCCO)n3c4c(c5ccccc53)CCN(CCC1)[C@H]42 [Compound S58] | 11.4 |  |
| CC[C@@]12C=C(C(=O)N[C@@H](CO)C(=O)OC)n3c4c(c5ccccc53)CCN(CCC1)[C@H]42 [Compound S85] | 11.8 |  |
| CC[C@@]12C=C(C(=O)NCC(=O)N[C@@H](CC(=O)O)C(=O)OCCOCCOCCOCCO)n3c4c(c5ccccc53)CCN(CCC1)[C@H]42 [Compound S50] | 11.3 |  |
| CC[C@@]12C=C(C(=O)N[C@@H](CCC(=O)O)C(=O)OCCOCCOCCOCCO)n3c4c(c5ccccc53)CCN(CCC1)[C@H]42 [Compound S43] | 11.2 |  |
| CC[C@@]12C=C(C(=O)N[C@@H](Cc3ccccc3)C(=O)O)n3c4c(c5ccccc53)CCN(CCC1)[C@H]42 [Compound S75] | 10.7 |  |
| CC[C@@]12C=C(C(=O)N[C@@H](Cc3ccc(O)cc3)C(=O)OCCOCCOCCOCCO)n3c4c(c5ccccc53)CCN(CCC1)[C@H]42 [Compound S44] | 9.9 |  |
| CC[C@@]12C=C(C(=O)N[C@@H](CN)C(=O)O)n3c4c(c5ccccc53)CCN(CCC1)[C@H]42 [Compound S72] | 11.3 |  |
| CC[C@@]12C=C(C(=O)OCCCC(=O)OCCOCCOCCOCCOCCOCCO)n3c4c(c5ccccc53)CCN(CCC1)[C@H]42 [Compound S62] | 12.8 | more outstanding effect |
| CC[C@@]12C=C(C(=O)NCC(=O)N[C@@H](CO)C(=O)O)n3c4c(c5ccccc53)CCN(CCC1)[C@H]42 [Compound S81] | 11.9 |  |
| CC[C@@]12C=C(C(=O)N[C@@H](CCCCN)C(=O)OCCOCCOCCOCCO)n3c4c(c5ccccc53)CCN(CCC1)[C@H]42 [Compound S40] | 11.4 |  |
| CC[C@@]12C=C(C(=O)NCC(=O)N[C@@H](CS)C(=O)O)n3c4c(c5ccccc53)CCN(CCC1)[C@H]42 [Compound S76] | 11.1 |  |
| CC[C@@]12C=C(C(=O)NCC(=O)N[C@H](C(=O)O)C(C)C)n3c4c(c5ccccc53)CCN(CCC1)[C@H]42 [Compound S80] | 11.3 |  |
| CC[C@@]12C=C(C(=O)NCC(=O)N[C@@H](C)C(=O)OCCOCCOCCO)n3c4c(c5ccccc53)CCN(CCC1)[C@H]42 [Compound S47] | 11.2 |  |
| CC[C@@]12C=C(C(=O)NCCNC(=O)OCCOCCOCCOCCO)n3c4c(c5ccccc53)CCN(CCC1)[C@H]42 [Compound S65] | 11 |  |
| CC[C@@]12C=C(C(=O)NCC(=O)N[C@@H](CC(C)C)C(=O)OCCOCCOCCOCCO)n3c4c(c5ccccc53)CCN(CCC1)[C@H]42 [Compound S51] | 9.8 |  |
| CC[C@@]12C=C(C(=O)N[C@@H](CO)C(=O)OCCOCCOCCOCCOC)n3c4c(c5ccccc53)CCN(CCC1)[C@H]42 [Compound S15] | 11.3 |  |
| CC[C@@]12C=C(C(=O)N[C@@H](CO)C(=O)OCCOCCOCCOCCO)n3c4c(c5ccccc53)CCN(CCC1)[C@H]42 [Compound S34] | 10.5 |  |
| CC[C@@]12C=C(C(=O)NCC(=O)N[C@H](C(=O)OCCOCCOCCOCCO)C(C)O)n3c4c(c5ccccc53)CCN(CCC1)[C@H]42 (stereo partly shown) [Compound S52] | 9.5 |  |
| CC[C@@]12C=C(C(=O)N[C@H](C(=O)O)C(C)C)n3c4c(c5ccccc53)CCN(CCC1)[C@H]42 [Compound S74] | 10.9 |  |
| CC[C@@]12C=C(C(=O)N(CC(=O)OCCOCCOCCOCCO)C3CC3)n3c4c(c5ccccc53)CCN(CCC1)[C@H]42 [Compound S64] | 11.3 |  |
| CC[C@@]12C=C(C(=O)OCCC(=O)OCCOCCOCCOCCOCCO)n3c4c(c5ccccc53)CCN(CCC1)[C@H]42 [Compound S59] | 10.6 |  |
| CC[C@@]12C=C(C(=O)NCC(=O)OCCOCCOC)n3c4c(c5ccccc53)CCN(CCC1)[C@H]42 [Compound S1] | 9.7 |  |
| CC[C@@]12C=C(C(=O)N[C@H](C(=O)OCCOCCOCCOCCO)C(C)O)n3c4c(c5ccccc53)CCN(CCC1)[C@H]42 (stereo partly shown) [Compound S35] | 12.1 |  |
| CC[C@@]12C=C(C(=O)NCC(=O)N[C@@H](CC(N)=O)C(=O)OCCOCCOCCOCCO)n3c4c(c5ccccc53)CCN(CCC1)[C@H]42 [Compound S49] | 12 |  |
